Test results published in ChEMBL document CHEMBL1122711, “Design, synthesis, and testing of potential antisickling agents. 4. Structure-activity relationships of benzyloxy and phenoxy acids” (J Med Chem, 1984).

Assays:
[1] = human, 40000 µM
Description: Solubility ratio ([HbS+drug (40 mM)]/[HbS-drug])

[2] = human, 5000 µM
Description: Solubility ratio ([HbS+drug (5 mM)]/[HbS-drug])

[3] = human, 20000 µM
Description: Solubility ratio ([HbS+drug (20 mM)]/[HbS-drug]

[4] = human, 10000 µM

| SMILES | Solubility ratio [1] | Solubility ratio [2] | Solubility ratio [3] | Solubility ratio [4] |
| --- | --- | --- | --- | --- |
| Nc1ccc(CSCC(=O)O)cc1 | 1.174 | 1.006 | 1.076 | 1.031 |
| O=C(O)COc1c(Br)cc(Br)cc1Br | 1.248 | 1.018 | 1.145 | 1.077 |
| O=C(O)COc1cccc(Cl)c1Cl | 1.135 | 1.025 | 1.09 | 1.057 |
| O=C(O)COc1ccc(Br)cc1 | 1.317 | 1.049 | 1.18 | 1.093 |
| O=C(O)CSc1c(F)c(F)c(F)c(F)c1F | 1.236 | 1.025 | 1.117 | 1.053 |
| Cc1cc(Br)c(OCC(=O)O)c(Br)c1 | 1.284 | 1.077 | 1.139 | 1.043 |
| Cc1ccc(COCC(=O)O)c(C)c1 | 1.325 | 1.05 | 1.163 | 1.054 |
| O=C(O)COCc1ccc(I)cc1 | 1.35 | 1.039 | 1.236 | 1.09 |
| O=C(O)COCc1cc(Cl)cc(Cl)c1 | 1.382 | 1.076 | 1.33 | 1.149 |
| Cc1cc(C)cc(OCC(=O)O)c1 | 1.31 | 1.035 | 1.141 | 1.048 |
| Cc1cc(C)cc(COCC(=O)O)c1 | 1.315 | 1.01 | 1.129 | 1.031 |
| Cc1cc(OCC(=O)O)cc(C)c1Br | 1.092 | 0.996 | 1.063 | 1.004 |
| Cc1ccc(C)c(OCC(=O)O)c1 | 1.248 | 1.031 | 1.114 | 1.055 |
| Cc1ccc(OCC(=O)O)c(Br)c1 | 1.189 | 1.031 | 1.102 | 1.035 |
| O=C(O)COc1ccc2c(c1)oc1ccccc12 | 1.185 | 1.033 | 1.09 | 1.054 |
| O=C(O)COCc1ccc(Oc2ccccc2)cc1 | 1.162 | 1.034 | 1.165 | 1.088 |
| O=C(O)COc1ccc2c(c1)Cc1ccccc1-2 | 1.113 | 1.029 | 1.067 | 1.042 |
| O=C(O)COCc1ccc(Cl)cc1 | 1.396 | 1.065 | 1.206 | 1.104 |
| COc1cc(OC)cc(OCC(=O)O)c1 | 1.232 | 1.03 | 1.12 | 1.052 |
| O=C(O)COc1ccc(Cl)c(Cl)c1 | 1.339 | 1.061 | 1.234 | 1.117 |

| SMILES | Solubility ratio [1] | Solubility ratio [2] | Solubility ratio [3] | Solubility ratio [4] |
| --- | --- | --- | --- | --- |
| CC(C)(Oc1ccc(Cl)cc1)C(=O)Oc1ccccc1C(=O)O | 1.109 | 1.022 | 1.153 | 1.044 |
| Cc1ccc(COCC(=O)O)cc1C | 1.289 | 1.06 | 1.142 | 1.086 |
| Cc1cc(C)c(C)c(OCC(=O)O)c1 | 1.351 | 1.035 | 1.18 | 1.086 |
| CC(C)(OCc1ccc(Br)cc1)C(=O)O | 1.379 | 1.048 | 1.193 | 1.086 |
| COc1cc(OCC(=O)O)cc(OC)c1OC | 1.047 | 0.987 | 1.015 | 1.013 |
| Cc1ccc(COCC(=O)O)cc1 | 1.304 | 1.017 | 1.137 | 1.059 |
| O=C(O)CSc1cc(Cl)c(Cl)cc1Cl | 1.12 | 1.018 | 1.07 | 1.032 |
| O=C(O)COc1ccc([N+](=O)[O-])cc1 | 1.344 | 0.983 | 1.329 | 1.043 |
| O=C(O)CSc1ccc(Br)cc1 | 1.261 | 1.023 | 1.113 | 1.063 |
| CSc1ccc(OCC(=O)O)cc1 | 1.223 | 1.035 | 1.16 | 1.027 |
| Cc1cc(OCC(=O)O)ccc1Cl | 1.275 | 1.05 | 1.171 | 1.08 |
| O=C(O)COc1ccc2c(c1)CCC2 | 1.322 | 1.054 | 1.247 | 1.134 |
| O=C(O)COc1ccc(Cl)cc1 | 1.287 | 1.04 | 1.163 | 1.08 |
| Cc1cc(OCC(=O)O)cc(C)c1Cl | 1.216 | 1.033 | 1.124 | 1.054 |
| O=C(O)CSCc1ccc(Br)cc1 | 1.307 | 1.024 | 1.131 | 1.053 |
| O=C(O)CCOCc1ccc(Cl)c(Cl)c1 | 1.395 | 1.062 | 1.305 | 1.142 |
| O=C(O)COCc1ccc(Cl)c(Cl)c1 | 1.32 | 1.083 | 1.309 | 1.162 |
| COc1cc(Cl)ccc1COCC(=O)O | 1.311 | 1.062 | 1.233 | 1.121 |
| COc1ccc(COCC(=O)O)cc1 | 1.149 | 0.996 | 1.054 | 1.012 |
| O=C(O)COc1ccc(I)cc1 | 1.176 | 1.04 | 1.09 | 1.046 |

| SMILES | Solubility ratio [1] | Solubility ratio [2] | Solubility ratio [3] | Solubility ratio [4] |
| --- | --- | --- | --- | --- |
| Cc1ccc(OCC(=O)O)cc1C | 1.243 | 1.027 | 1.118 | 1.06 |
| C=CCc1ccc(OCC(=O)O)c(OC)c1 | 1.245 | 1.033 | 1.141 | 1.043 |
| Cc1cc(C)c(COCC(=O)O)c(C)c1 | 1.31 | 1.031 | 1.163 | 1.054 |
| COc1cc(COCC(=O)O)ccc1C | 1.248 | 1.034 | 1.145 | 1.081 |
| Nc1ccc(OCC(=O)O)cc1 | 1.145 | 1 | 1.113 | 1.01 |
| O=C(O)COCc1ccc(Cl)cc1Cl | 1.246 | 1.079 | 1.295 | 1.13 |
| O=C(O)C(CCOc1ccc(Br)cc1)C(=O)O | 1.36 | 1.057 | 1.323 | 1.134 |
| O=C(O)C(CCc1ccccc1)C(=O)O | 1.263 | 1.007 | 1.101 | 1.058 |
| O=C(O)CSc1ccc(Cl)cc1 | 1.296 | 1.026 | 1.168 | 1.069 |
| COc1cccc(OCC(=O)O)c1OC | 1.144 | 1.017 | 1.064 | 1.036 |
| O=C(O)COC(c1ccccc1)c1ccc(Cl)cc1 (stereo unspecified) | 1.25 | 1.002 | 1.103 | 1.032 |
| CC(C)(C)c1ccc(OCC(=O)O)cc1 |  | 1.004 | 1.058 | 1.012 |
| CN(C)c1ccc(OCC(=O)O)cc1.Cl | 1.057 | 1.022 | 1.011 | 1.044 |
| O=C(O)COCc1ccc(Br)cc1 | 1.398 | 1.059 | 1.233 | 1.118 |
| O=C(O)COc1ccc(Cl)cc1Cl [2,4-DICHLOROPHENOXYACETIC ACID] | 1.313 | 1.049 | 1.151 | 1.083 |
| CC(C)(Oc1ccc(CCNC(=O)c2ccc(Cl)cc2)cc1)C(=O)O [BEZAFIBRATE] | 1.198 | 0.954 | 0.981 | 0.932 |
| CC(C)(Oc1ccc(Cl)cc1)C(=O)O [CLOFIBRIC ACID] | 1.302 | 1.018 | 1.155 | 1.064 |
| Cc1ccc(C)c(OCCCC(C)(C)C(=O)O)c1 [GEMFIBROZIL] | 1.234 | 1.04 | 1.117 | 1.073 |
